The source of these data is patent US20260364080A1, “PYRAZOLO-PYRIMIDINONE COMPOUNDS FOR USE IN METHODS OF INHIBITING WEE1 A KINASE” (Acrivon Therapeutics, Inc., priority 2023, published 2026).

Like-named read-outs stand apart in the source and are kept apart here.

One experiment relates to ACHN cells. As to the kind of experiment: Cell Titer Glo viability assay, ACHN cells. The class given is cell-based. To be noted: Homo sapiens, 144 h, absolute EC50. Here is the method:
Each of an ACHN renal cell carcinoma cell line (ATCC) and a DAOY medulloblastoma cell line, and an A427 lung cancer line were cultured in Minimum Essential Medium Eagle supplemented with 10% fetal calf serum (Sigma), 1% Penicillin-Streptomycin and 10 mM HEPES buffer (HyClone). Cell cultures were kept in a humidified incubator at 37 °C and 5% CO2. Cells were routinely tested for Mycoplasma contamination.
ACHN cells, DAOY cells, or A427 cells were seeded at a density of 400, 250, or 500 cells per well respectively, in tissue culture treated 384 well plates (Corning Costar). After overnight incubation, cells were treated with drugs at concentrations ranging from 17 to 10 000 nM. Viability compared to untreated control was assessed at 144 h using Cell Titer Glo assay 2.0 (Promega). […] “NT” means the compounds was not tested in the indicated cells.

Experiment [1] addresses T1, recombinant human Wee1A kinase (Homo sapiens, UniProt P30291).
T1 construct: full length Wee1 kinase was expressed by baculovirus in insect cells; purchased Invitrogen PV3817; host or cells: insect cells (baculovirus)
Put plainly: Wee1A kinase binding assay (LanthaScreen Eu time-resolved FRET). The method, boiled down:
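Full-length, baculovirus-expressed GST-tagged Wee1A (5 nM) was mixed with 2 nM Eu-anti-GST antibody, 30 nM kinase tracer 178 and compound (1% DMSO). Buffer was 50 mM HEPES pH 7.5, 10 mM MgCl2, 1 mM EGTA, 0.01% Brij-35, incubated 60 min at room temperature. TR-FRET 665/615 nm emission ratios from duplicates were curve-fitted.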

Experiment [2] concerns the target T2, Myt1 kinase (recombinant PMYT-1) (Homo sapiens, UniProt Q99640).
T2 construct: full length PMYT-1 was expressed by baculovirus in insect cells; purchased Invitrogen A30984; host or cells: insect cells (baculovirus)
T2 sequence (Q99640 1-499): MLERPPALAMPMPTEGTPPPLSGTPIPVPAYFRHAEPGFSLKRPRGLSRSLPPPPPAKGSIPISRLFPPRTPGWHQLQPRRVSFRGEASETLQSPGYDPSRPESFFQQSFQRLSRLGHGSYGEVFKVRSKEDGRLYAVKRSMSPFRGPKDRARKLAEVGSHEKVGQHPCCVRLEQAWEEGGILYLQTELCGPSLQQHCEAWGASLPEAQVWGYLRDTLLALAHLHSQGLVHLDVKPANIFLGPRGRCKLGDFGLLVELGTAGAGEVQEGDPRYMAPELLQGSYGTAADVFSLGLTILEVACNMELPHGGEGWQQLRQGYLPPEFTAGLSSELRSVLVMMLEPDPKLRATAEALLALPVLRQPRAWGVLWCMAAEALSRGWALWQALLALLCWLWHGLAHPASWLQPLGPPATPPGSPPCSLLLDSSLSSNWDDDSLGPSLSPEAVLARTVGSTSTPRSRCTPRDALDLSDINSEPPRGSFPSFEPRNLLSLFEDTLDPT
As to the kind of experiment: Myt1 kinase binding assay (LanthaScreen Eu Kinase Binding Assay). Summed up:
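Compound binding to Myt1 kinase was assessed using the LanthaScreen Eu Kinase Binding Assay. This europium-based binding format was applied to quantify how strongly each compound bound to the Myt1 enzyme, and the binding affinity was reported for each compound as an IC50 value.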

In experiment [3] the target is T3, Wee1A kinase (CDK1 Tyr15 phosphorylation in ACHN renal cell carcinoma cells) (Homo sapiens, UniProt P30291).
T3 construct: pCDK1 Tyr15 immunofluorescence read-out
T3 sequence (P30291 whole entry): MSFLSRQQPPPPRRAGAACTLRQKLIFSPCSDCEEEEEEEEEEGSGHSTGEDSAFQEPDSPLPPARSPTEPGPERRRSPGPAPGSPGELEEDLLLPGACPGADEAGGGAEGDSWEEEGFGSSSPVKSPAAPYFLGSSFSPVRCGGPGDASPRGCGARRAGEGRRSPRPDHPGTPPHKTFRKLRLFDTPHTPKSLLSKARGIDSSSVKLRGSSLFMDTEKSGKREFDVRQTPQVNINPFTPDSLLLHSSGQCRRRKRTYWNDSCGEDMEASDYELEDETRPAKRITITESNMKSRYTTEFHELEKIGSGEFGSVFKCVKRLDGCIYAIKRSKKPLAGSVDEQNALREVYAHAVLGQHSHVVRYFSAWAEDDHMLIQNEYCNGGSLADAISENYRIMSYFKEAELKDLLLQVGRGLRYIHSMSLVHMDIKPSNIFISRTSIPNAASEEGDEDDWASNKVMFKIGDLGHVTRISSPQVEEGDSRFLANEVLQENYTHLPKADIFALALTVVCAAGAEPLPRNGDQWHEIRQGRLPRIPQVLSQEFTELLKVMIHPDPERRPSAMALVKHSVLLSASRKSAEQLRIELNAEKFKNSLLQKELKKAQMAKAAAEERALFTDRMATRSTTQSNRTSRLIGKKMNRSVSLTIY
Put plainly: High-content imaging of pCdk1 Y15, Wee1A kinase target engagement in ACHN cells. The class given is cell-based. Summed up:
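EC50 values come from the per-well fraction of cells with nuclear pCdk1 Y15 staining, normalised to DMSO control, by automated immunofluorescence imaging. Cells were ACHN renal carcinoma, treated 4 h with compound at 7–5,000 nM or 0.3–200 nM.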

The mark [4] stands for this setting: 30 nM tracer 178, 5 nM Wee1A kinase, 2 nM Eu-labeled antibody, 60 minutes at room temperature, read-out: Wee1A kinase Binding IC50.
[5] abbreviates: 3 nM tracer 178, 2.5 nM PMYT-1, 1 nM Eu-labeled antibody, read-out: Myt1 kinase Binding IC50.
Setting [6] is: 4 h treatment, nuclear positivity for pCdk1 Y15 vs DMSO control, read-out: CDK1 Tyr15 Phosphorylation EC50.
Where [7] appears, read: Myt1 kinase Binding IC50, 3 nM tracer 178, 2.5 nM PMYT-1, 1 nM Eu-labeled antibody.
The mark [8] stands for this setting: read-out: CDK1 Tyr15 Phosphorylation EC50, 4 h treatment, nuclear positivity for pCdk1 Y15 vs DMSO control.

T1 sequence (P30291 whole entry): as above

Turning to `C=CCn1c(=O)c2cnc(Nc3ccc(OC)c(C)c3)nc2n1-c1cccc(NC2CCNCC2)n1` [Compound 127, 2-allyl-6-(4-methoxy-3-toluidino)-1-[6-(4-piperidylamino)-2-pyridyl]-1,2-dihydro-3H-1,2,5,7-tetraazainden-3-one], the EC50 in the experiment with ACHN cells lay within 500 to 1000 nM; in experiment [3] (setting [6]) it was 100 to 500 nM. Besides, the IC50 in experiment [1] (setting [4]) was less than 10 nM; in experiment [2] (setting [5]), 100 to 500 nM.
In the case of `C=CCn1c(=O)c2cnc(Nc3ccc(OCC(F)(F)F)cc3)nc2n1-c1cccc(NC2CCN(C)CC2)n1` [Compound 139, 2-allyl-1-[6-(1-methyl-4-piperidylamino)-2-pyridyl]-6-[p-(2,2,2-trifluoroethoxy)phenylamino]-1,2-dihydro-3H-1,2,5,7-tetraazainden-3-one], the EC50 (in the experiment with ACHN cells; in experiment [3] (setting [6])) was 100 to 500 nM each time. Also, the figures for the IC50 in experiment [1] (setting [4]) and in experiment [2] (setting [5]) were less than 10 nM and 100 to 500 nM, respectively.
On to `C=CCn1c(=O)c2cnc(Nc3ccc(F)c(C)c3)nc2n1-c1cccc(NC2CCN(C)CC2)n1` [Compound 140, 2-allyl-6-(4-fluoro-3-toluidino)-1-[6-(1-methyl-4-piperidylamino)-2-pyridyl]-1,2-dihydro-3H-1,2,5,7-tetraazainden-3-one], for which the EC50 in the experiment on ACHN cells is not above 100 nM; in experiment [3] (setting [6]) it was less than 100 nM. The IC50 in experiment [1] (setting [4]) is less than 10 nM; in experiment [2] (setting [5]) it was 100 to 500 nM.
Turning to `C=CCn1c(=O)c2cnc(Nc3ccc(Cl)cc3)nc2n1-c1cccc(N(C)C2CCN(C)CC2)n1` [Compound 157, 6-[(4-chlorophenyl)amino]-1-{6-[methyl(1-methylpiperidin-4-yl)amino]pyridin-2-yl}-2-(prop-2-en-1-yl)-1H,2H,3H-pyrazolo[3,4-d]pyrimidin-3-one], the EC50 (in the experiment with ACHN cells; in experiment [3] (setting [8])) was 100 to 500 nM in each case. The half-maximal inhibitory concentration (IC50) in experiment [1] was less than 10 nM; in experiment [2] (setting [7]) it was more than 500 nM.
On to `C=CCn1c(=O)c2cnc(Nc3cnn(C)c3)nc2n1-c1cccc(O[C@H]2CN3CCC2CC3)n1` [Compound 172, 1-{6-[(3R)-1-azabicyclo[2.2.2]octan-3-yloxy]pyridin-2-yl}-6-[(1-methyl-1H-pyrazol-4-yl)amino]-2-(prop-2-en-1-yl)-1H,2H,3H-pyrazolo[3,4-d]pyrimidin-3-one], for which the EC50 (in the experiment with ACHN cells; in experiment [3] (setting [8])) was more than 1000 nM in each case. Besides, the IC50 in experiment [1] was less than 10 nM; in experiment [2] (setting [7]), more than 500 nM.
For `C=CCn1c(=O)c2cnc(Nc3cnn(CCC)c3)nc2n1-c1cccc(OC2CCN(C)CC2)n1` [Compound 180, 2-allyl-1-[6-(1-methyl-4-piperidyloxy)-2-pyridyl]-6-(1-propyl-4-pyrazolylamino)-1,2-dihydro-3H-1,2,5,7-tetraazainden-3-one], the EC50 is not above 100 nM in the experiment on ACHN cells and less than 100 nM in experiment [3] (setting [6]). Besides, the IC50 is less than 10 nM in experiment [1] (setting [4]) and 100 to 500 nM in experiment [2] (setting [5]).
For `C=CCn1c(=O)c2cnc(Nc3ccc(OCC(F)(F)F)c(C)c3)nc2n1-c1cccc(NC2CCN(C)CC2)n1` [Compound 181, 2-allyl-1-[6-(1-methyl-4-piperidylamino)-2-pyridyl]-6-[4-(2,2,2-trifluoroethoxy)-3-toluidino]-1,2-dihydro-3H-1,2,5,7-tetraazainden-3-one], in that order: not above 100 nM, less than 100 nM, less than 10 nM and 100 to 500 nM.
For `C=CCn1c(=O)c2cnc(Nc3cccc(C)c3)nc2n1-c1cccc(NC2CCN(C)CC2)n1` [Compound 188, 2-allyl-1-[6-(1-methyl-4-piperidylamino)-2-pyridyl]-6-m-toluidino-1,2-dihydro-3H-1,2,5,7-tetraazainden-3-one], in that order: not above 100 nM, less than 100 nM, less than 10 nM and 100 to 500 nM.
For `C=CCn1c(=O)c2cnc(Nc3cc(C)nc(C)c3)nc2n1-c1cccc(OC2CCN(C)CC2)n1` [Compound 199, 6-[(2,6-dimethylpyridin-4-yl)amino]-1-{6-[(1-methylpiperidin-4-yl)oxy]pyridin-2-yl}-2-(prop-2-en-1-yl)-1H,2H,3H-pyrazolo[3,4-d]pyrimidin-3-one], in that order: 100 to 500 nM, less than 100 nM, less than 10 nM and 100 to 500 nM.
Regarding `C=CCn1c(=O)c2cnc(Nc3ccc4c(cnn4C)c3)nc2n1-c1cccc(OC2CCN(C)CC2)c1` [Compound 220, 2-allyl-6-(1-methyl-1H-indazol-5-ylamino)-1-[m-(1-methyl-4-piperidyloxy)phenyl]-1,2-dihydro-3H-1,2,5,7-tetraazainden-3-one], the EC50 in the experiment on ACHN cells is not above 100 nM; in experiment [3] (setting [6]) it was less than 100 nM. Further, the results for the IC50 in experiment [1] (setting [4]) and in experiment [2] (setting [5]) were less than 10 nM and 100 to 500 nM, respectively.
For `C=CCn1c(=O)c2cnc(Nc3ccc4c(cnn4C)c3)nc2n1-c1cccc(NC2CCN(C)CC2)c1` [Compound 226, 2-allyl-6-(1-methyl-1H-indazol-5-ylamino)-1-[m-(1-methyl-4-piperidylamino)phenyl]-1,2-dihydro-3H-1,2,5,7-tetraazainden-3-one], the results for the EC50 (in the experiment with ACHN cells; in experiment [3] (setting [6])) were 100 to 500 nM and less than 100 nM, respectively. For the same molecule, the IC50 in experiment [1] (setting [4]) is less than 10 nM; in experiment [2] (setting [5]) it was more than 500 nM.
For `C=CCn1c(=O)c2cnc(Nc3ccc(OCC(F)(F)F)cc3)nc2n1-c1cccc(OC2CCNCC2)n1` [Compound 227, 2-allyl-1-[6-(4-piperidyloxy)-2-pyridyl]-6-[p-(2,2,2-trifluoroethoxy)phenylamino]-1,2-dihydro-3H-1,2,5,7-tetraazainden-3-one], in that order: not above 100 nM, less than 100 nM, less than 10 nM and less than 20 nM.
For `CCn1c(=O)c2cnc(Nc3ccc4c(c3)ncn4C)nc2n1-c1cccc(OC2CCN(C)CC2)n1` [Compound 235, 2-ethyl-6-((1-methyl-1H-benzo[d]imidazol-5-yl)amino)-1-(6-((1-methylpiperidin-4-yl)oxy)pyridin-2-yl)-1,2-dihydro-3H-pyrazolo[3,4-d]pyrimidin-3-one], in that order: not above 100 nM, less than 100 nM, less than 10 nM and 20 to 100 nM.
`C=CCn1c(=O)c2cnc(Nc3ccc4ccncc4c3)nc2n1-c1cccc(OC2CCNCC2)n1` [Compound 240, 2-allyl-6-(7-isoquinolylamino)-1-[6-(4-piperidyloxy)-2-pyridyl]-1,2-dihydro-3H-1,2,5,7-tetraazainden-3-one]: the EC50 (in the experiment with ACHN cells; in experiment [3] (setting [6])) was 100 to 500 nM throughout. For the same molecule, the IC50 is less than 10 nM in experiment [1] (setting [4]) and 20 to 100 nM in experiment [2] (setting [5]).
As for `C=CCn1c(=O)c2cnc(Nc3ccc4scnc4c3)nc2n1-c1cccc(OC2CCNCC2)n1` [Compound 246, 2-allyl-6-(benzo[d]thiazol-5-ylamino)-1-(6-(piperidin-4-yloxy)pyridin-2-yl)-1,2-dihydro-3H-pyrazolo[3,4-d]pyrimidin-3-one], the EC50 with ACHN cells is 100 to 500 nM; in experiment [3] (setting [6]), less than 100 nM. In addition, the 50% inhibitory concentration (IC50) in experiment [1] (setting [4]) is less than 10 nM; in experiment [2] (setting [5]) it was less than 20 nM.
